Measurements reported in patent US20100264359A1, “BIOCIDAL MIXTURES” (LANXESS DEUTSCHLAND GMBH, priority 2007, published 2010).

What was measured:
[1] = test system: Yeasts; assay: Preservation of a cooling lubricant emulsion, repeated weekly contamination with yeasts; format: cell-based, Rhodotorula rubra; settings: maximum of 10 weeks; for Number of weeks in which the growth of microorganisms remained below the limiting values (yeasts <10^3-4 CFU/g): 0.18% (=1800 ppm) OPP in cooling lubricant emulsion; for Number of weeks in which the growth of microorganisms lay beneath the limiting values (yeasts <10^3-4 CFU/g): 0.05% (=500 ppm) BIT in cooling lubricant emulsion
Protocol: (§1) For this purpose, preserved samples of the cooling lubricant emulsion were repeatedly exposed in a weekly cycle to microbiological contamination with the following microorganisms:
(§2) The bacteria mixture was added in each case separately from the yeasts/molds. The maximum experimental time was 10 weeks (=10 contaminations/inoculation cycles), provided that the weekly cell count determination (in each case 7 days after the contamination) was kept within the following limiting values:
(§3) bacteria <10^6 CFU/g yeasts/molds <10^3-4 CFU/g
(§4) The experiment was terminated when said values were exceeded twice in succession.

[2] = test system: Molds; assay: Preservation of a cooling lubricant emulsion, repeated weekly contamination with molds; format: cell-based, Acremonium strictum, Fusarium solani, Geotrichum candidum; settings: maximum of 10 weeks; for Number of weeks in which the growth of microorganisms remained below the limiting values (molds <10^3-4 CFU/g): 0.18% (=1800 ppm) OPP in cooling lubricant emulsion; for Number of weeks in which the growth of microorganisms lay beneath the limiting values (molds <10^3-4 CFU/g): 0.05% (=500 ppm) BIT in cooling lubricant emulsion
Protocol: as §1, §2, §3, §4

[3] = test system: Bacteria; assay: Preservation of a cooling lubricant emulsion, repeated weekly contamination with bacteria mixture; format: cell-based; settings: maximum of 10 weeks; for Number of weeks in which the growth of microorganisms remained below the limiting values (bacteria <10^6 CFU/g): 0.18% (=1800 ppm) OPP in cooling lubricant emulsion; for Number of weeks in which the growth of microorganisms lay beneath the limiting values (bacteria <10^6 CFU/g): 0.05% (=500 ppm) BIT in cooling lubricant emulsion
Protocol: as §1, §2, §3, §4

Compound | Number of weeks in which the growth of microorganisms remained below the limiting values (yeasts <10^3-4 CFU/g) [1] [weeks] | Number of weeks in which the growth of microorganisms remained below the limiting values (yeasts <10^3-4 CFU/g) ([1]; listed as o-phenylphenol) | Number of weeks in which the growth of microorganisms remained below the limiting values (molds <10^3-4 CFU/g) [2] [weeks] | Number of weeks in which the growth of microorganisms remained below the limiting values (molds <10^3-4 CFU/g) ([2]; listed as o-phenylphenol) | Number of weeks in which the growth of microorganisms remained below the limiting values (bacteria <10^6 CFU/g) [3] [weeks] | Number of weeks in which the growth of microorganisms remained below the limiting values (bacteria <10^6 CFU/g) ([3]; listed as o-phenylphenol) | Number of weeks in which the growth of microorganisms lay beneath the limiting values (yeasts <10^3-4 CFU/g) [1] [weeks] | Number of weeks in which the growth of microorganisms lay beneath the limiting values (yeasts <10^3-4 CFU/g) ([1]; listed as benzisothiazolinone) | Number of weeks in which the growth of microorganisms lay beneath the limiting values (molds <10^3-4 CFU/g) [2] [week weeks] | Number of weeks in which the growth of microorganisms lay beneath the limiting values (molds <10^3-4 CFU/g) ([2]; listed as benzisothiazolinone) | Number of weeks in which the growth of microorganisms lay beneath the limiting values (bacteria <10^6 CFU/g) [3] [week weeks] | Number of weeks in which the growth of microorganisms lay beneath the limiting values (bacteria <10^6 CFU/g) ([3]; listed as benzisothiazolinone)
Oc1ccccc1-c1ccccc1 [OPP, o-phenylphenol] | 10 | 10 weeks (of a maximum of 10 weeks) | 10 | 10 weeks (of a maximum of 10 weeks) | 2 | 2 weeks (of a maximum of 10 weeks) | – | – | – | – | – | –
O=c1[nH]sc2ccccc12 [BIT, benzisothiazolinone] | – | – | – | – | – | – | 7 | 7 weeks (of a maximum of 10 weeks) | 1 | 1 week (of a maximum of 10 weeks) | 1 | 1 week (of a maximum of 10 weeks)
